Consider nine molecules from patent US12221439B2, “Tetrahydropyridopyrimidine derivatives as AhR modulators” (JAGUAHR THERAPEUTICS PTE LTD, priority 2018, dated 2025).

The target of one data set is CYP1A1 (Homo sapiens (Human), UniProt P04798). Kind of data set: CYP1A1 inhibition assay (Promega P450-Glo, Cypex bactosomes). Format: biochemical. The following applies: direct CYP1A1 inhibition, Luciferin-CEE 30 μM, NADPH, 37° C., arithmetic mean of pIC50. The procedure:
In Vitro Assay 22: […] Inhibition Assay
The direct CYP1A1 inhibitory activity of test compounds was also assessed using the Promega P450-Glo™ assay system. Seven concentrations of test compound were added to a ½ area white 96 well plate. Cypex […]. bactosomes ([final] 0.5 pmol) and CYPA substrate Luciferin-CEE ([final] 30 μM) were prepared in 0.1M potassium phosphate buffer and incubated with test compounds at 37° C. for 5 minutes. 0.2m NADPH was then added to the plates and incubated at 37° C., for 10 minutes. The reaction was stopped by adding luciferin detection reagent and luminescence was read after 20 minutes.

Another data set concerns the target AhR (Homo sapiens (Human), UniProt P35869). In words: AhR antagonism in U937 cells (Promega P450-Glo assay). Format: cell-based. The settings on record: inhibition of agonist (KYNA) response, CYP1A1 activity readout (Luciferin-CEE), 24 hrs, arithmetic mean of pIC50. The procedure:
Examples were tested in selected biological assays two or more times. Data are reported as the arithmetic mean of the pIC50 (−log10IC50) values, where IC50 is defined as the concentration of compound producing a 50% inhibition of the agonist (KYNA) response.
In Vitro Assay 1: AhR Antagonism in U937 Cells (Promega P450-Glo™ Assay)
AhR antagonism was assessed in U937 cells (myeloid lineage cell line derived from a human histiocytic lymphoma).). Ligand binds the AhR in the cytoplasm, and the AhR-ligand complex translocates to the nucleus and forms a heterodimer with AhR nuclear translocator (Arnt). This complex binds the xenobiotic response element (XRE) in the 5′ upstream region of the CYP1A1 promoter, enhancing CYP1A1 expression. CYP1A1 activity is subsequently determined by assessing the conversion of Luciferin-CEE to luciferin, which in turn reacts with luciferase to produce light. The amount of light produced is directly proportional to cytochrome P450 activity. U937 cells in Ultraculture serum free media (Lonza) were plated at 100,000 cells per well in a round bottom 96 well tissue culture plate. Seven concentrations of test compound (final [DMSO] 1%) were added and incubated for 10 minutes before the addition of […] KYNA. The plates were then placed in an incubator at 37° C., >85% humidity, 5% CO2 for 24 hrs. After aspiration of the supernatant the CYP1A1 substrate Luciferin-CEE ([Final] 83 μM) was added and incubated for 3 hrs before the reaction was stopped by adding luciferin detection reagent and luminescence was read after 20 minutes.

Chain of AhR (P35869 11-848): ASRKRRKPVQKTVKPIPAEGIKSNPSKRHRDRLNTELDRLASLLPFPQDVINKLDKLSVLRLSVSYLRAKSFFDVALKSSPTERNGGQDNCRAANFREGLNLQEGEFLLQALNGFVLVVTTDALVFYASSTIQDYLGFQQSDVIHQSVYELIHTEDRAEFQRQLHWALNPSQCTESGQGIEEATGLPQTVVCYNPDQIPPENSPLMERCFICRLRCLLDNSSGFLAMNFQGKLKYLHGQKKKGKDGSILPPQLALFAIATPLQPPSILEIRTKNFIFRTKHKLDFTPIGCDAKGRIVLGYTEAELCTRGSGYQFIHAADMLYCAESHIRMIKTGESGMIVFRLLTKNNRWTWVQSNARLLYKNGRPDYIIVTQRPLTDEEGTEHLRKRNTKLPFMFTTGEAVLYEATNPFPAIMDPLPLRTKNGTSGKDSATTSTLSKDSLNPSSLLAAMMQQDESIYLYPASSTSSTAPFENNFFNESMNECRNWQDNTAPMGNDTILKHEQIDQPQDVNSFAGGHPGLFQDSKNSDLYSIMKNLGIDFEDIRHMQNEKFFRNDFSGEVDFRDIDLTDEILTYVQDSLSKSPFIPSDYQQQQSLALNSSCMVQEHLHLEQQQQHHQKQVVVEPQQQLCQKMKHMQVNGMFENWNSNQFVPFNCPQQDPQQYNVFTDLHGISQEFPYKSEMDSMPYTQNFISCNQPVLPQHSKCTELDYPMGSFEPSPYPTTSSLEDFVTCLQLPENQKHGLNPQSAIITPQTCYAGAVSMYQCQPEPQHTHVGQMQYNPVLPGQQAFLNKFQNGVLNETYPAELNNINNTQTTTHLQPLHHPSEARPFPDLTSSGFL
Chain of CYP1A1 (P04798 whole entry): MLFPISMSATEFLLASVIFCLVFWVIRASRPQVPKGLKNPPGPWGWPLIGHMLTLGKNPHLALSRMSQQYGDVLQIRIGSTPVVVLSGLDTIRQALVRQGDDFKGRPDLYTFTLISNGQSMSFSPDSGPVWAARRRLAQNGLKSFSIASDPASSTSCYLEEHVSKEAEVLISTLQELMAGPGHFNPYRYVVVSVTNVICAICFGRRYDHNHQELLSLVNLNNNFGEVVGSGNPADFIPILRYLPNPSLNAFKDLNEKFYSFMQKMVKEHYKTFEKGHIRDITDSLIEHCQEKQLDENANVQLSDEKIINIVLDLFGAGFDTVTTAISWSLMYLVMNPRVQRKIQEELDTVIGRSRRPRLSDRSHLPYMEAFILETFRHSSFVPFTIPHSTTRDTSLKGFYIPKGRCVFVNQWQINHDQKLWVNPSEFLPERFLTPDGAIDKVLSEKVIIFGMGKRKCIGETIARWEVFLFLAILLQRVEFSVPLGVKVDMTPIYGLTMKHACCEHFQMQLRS

As for `Fc1cncc(-c2nc3c(c(NCCc4c[nH]c5ccccc45)n2)CNC3)c1` [Example 24, N-(2-(1H-indol-3-yl)ethyl)-2-(5-fluoropyridin-3-yl)-6,7-dihydro-5H-pyrrolo[3,4-d]pyrimidin-4-amine], the “cyp1A1 pIC50” value on CYP1A1 was 6.60. In addition, on AhR, the IC50 – broadly, the concentration needed to halve the response being measured – was 12.6 nM.

Turning to `CS(=O)(=O)N1Cc2nc(-c3cncc(F)c3)nc(NCCc3c[nH]c4ccccc34)c2C1` [Example 25, N-(2-(1H-indol-3-yl)ethyl)-2-(5-fluoropyridin-3-yl)-6-(methylsulfonyl)-6,7-dihydro-5H-pyrrolo[3,4-d]pyrimidin-4-amine], the “cyp1A1 pIC50” value on CYP1A1 is 6.20. Further, the IC50 at AhR was 5.01 nM.

Take `Cc1cncc(-c2nc3c(c(NCCc4c[nH]c5ccccc45)n2)CNCC3)c1` [Example 26, N-(2-(1H-indol-3-yl)ethyl)-2-(5-methylpyridin-3-yl)-5,6,7,8-tetrahydro pyrido[4,3-d]pyrimidin-4-amine]: on CYP1A1, the “cyp1A1 pIC50” value is on record as 7.2. At AhR, this molecule gave an IC50 of 6.17 nM.

For the molecule `Clc1cncc(-c2nc3c(c(NCCc4c[nH]c5ccccc45)n2)CNCC3)c1` [Example 27, N-(2-(1H-indol-3-yl)ethyl)-2-(5-chloropyridin-3-yl)-5,6,7,8-tetrahydropyrido[4,3-d]pyrimidin-4-amine], the “cyp1A1 pIC50” value at CYP1A1 stood at 7.2. The molecule further showed an IC50 on AhR of 4.47 nM.

Turning to `Fc1cncc(-c2nc3c(c(NCCc4nc5ccccc5[nH]4)n2)CNCC3)c1` [Example 28, N-(2-(1H-benzo[d]imidazol-2-yl)ethyl)-2-(5-fluoropyridin-3-yl)-5,6,7,8-tetrahydropyrido[4,3-d]pyrimidin-4-amine], the “cyp1A1 pIC50” value at CYP1A1 was determined as 5.5. Further, on AhR, the concentration for half-maximal inhibition (IC50) is more than 10000 nM.

As to `Fc1cncc(-c2nc3c(c(NCCc4c[nH]c5cc(F)ccc45)n2)CCNC3)c1` [Example 29, N-(2-(6-fluoro-1H-indol-3-yl)ethyl)-2-(5-fluoropyridin-3-yl)-5,6,7,8-tetrahydropyrido[3,4-d]pyrimidin-4-amine], the “cyp1A1 pIC50” value at CYP1A1 is 6.7. For the same molecule, the IC50 at AhR is 7.94 nM.

`Fc1cncc(-c2nc3c(c(NCCc4c[nH]c5ccc(F)cc45)n2)CCNC3)c1` [Example 30, N-(2-(5-fluoro-1H-indol-3-yl)ethyl)-2-(5-fluoropyridin-3-yl)-5,6,7,8-tetrahydropyrido [3,4-d]pyrimidin-4-amine]: the “cyp1A1 pIC50” value on CYP1A1 was 6.5. The IC50 on AhR is 26.3 nM.

On to `Fc1cncc(-c2nc3c(c(NCCc4c[nH]c5cc(F)ccc45)n2)CNCC3)c1` [Example 31, N-(2-(6-fluoro-1H-indol-3-yl)ethyl)-2-(5-fluoropyridin-3-yl)-5,6,7,8-tetrahydropyrido[4,3-d]pyrimidin-4-amine], for which the “cyp1A1 pIC50” value at CYP1A1 was found to be 7.2. The molecule further gave an IC50 on AhR of 5.13 nM.

Turning to `Fc1cncc(-c2nc3c(c(NCCc4c[nH]c5ccc(F)cc45)n2)CNCC3)c1` [Example 32, N-(2-(5-fluoro-1H-indol-3-yl)ethyl)-2-(5-fluoropyridin-3-yl)-5,6,7,8-tetrahydropyrido[4,3-d]pyrimidin-4-amine], the “cyp1A1 pIC50” value on CYP1A1 is 7.1. The same molecule gave an IC50 on AhR of 6.03 nM.
